The values below come from patent US20230022400A1, “IMMUNOMODULATORS” (Bristol-Myers Squibb Company, priority 2019, published 2023).

In this test the target is T1, PD-1/PD-L1 interaction (PD-1-Ig / PD-L1-His) (Homo sapiens, UniProt Q9NZQ7).
T1 construct: TVMV protease site (linker) (C); made in house; host or cells: HEK293T cells
In words: PD-1/PD-L1 Homogenous Time-Resolved Fluorescence (HTRF) binding assay. Conditions: PD-L1-His 10 nM final, PD-1-Ig 20 nM final; inhibitors pre-incubated with PD-L1-His for 15 m. From the text: The ability of the compounds of formula (I) to bind to PD-L1 was investigated using a PD-1/PD-L1 Homogenous Time-Resolved Fluorescence (HTRF) binding assay.
The interaction of PD-1 and PD-L1 can be assessed using soluble, purified preparations of the extracellular domains of the two proteins. The PD-1 and PD-L1 protein extracellular domains were expressed as fusion proteins with detection tags, for PD-1, the tag was the Fc portion of Immunoglobulin (PD-1-Ig) and for PD-L1 it was the 6 histidine motif (PD-L1-His). All binding studies were performed in an HTRF assay buffer consisting of dPBS supplemented with 0.1% […] bovine serum albumin and 0.05% (v/v) Tween-20. For the h/PD-L1-His binding assay, inhibitors were pre-incubated with PD-L1-His (10 nM final) for 15 m in 4 μl of assay buffer, followed by addition of PD-1-Ig (20 nM final) in 1 μl of assay buffer and further incubation for 15 m. HTRF detection was achieved using europium crypate-labeled anti-Ig (1 nM final) and allophycocyanin (APC) labeled anti-His (20 nM final). Antibodies were diluted in HTRF detection buffer and 5 μl was dispensed on top of the binding reaction. The reaction mixture was allowed to equilibrate for 30 minutes and the resulting signal (665 nm/620 nm ratio) was obtained using an EnVision fluorometer. Additional binding assays were established between the human proteins PD-1-Ig/PD-L2-His (20 & 5 nM, respectively) and CD80-His/PD-L1-Ig (100 & 10 nM, respectively).
Recombinant Proteins: Human PD-1 (25-167) with a C-terminal human Fc domain of immunoglobulin G (Ig) epitope tag [hPD-1 (25-167)-3S-IG] and human PD-L1 (18-239) with a C-terminal His epitope tag [hPD-L1(18-239)-TVMV-His] were expressed in HEK293T cells and purified sequentially by ProteinA affinity chromatography and size exclusion chromatography. Human PD-L2-His and CD80-His was obtained through commercial sources.
Table 1 lists the IC50 values for representative examples of this disclosure measured in the PD-1/PD-L1 Homogenous Time-Resolved Fluorescence (HTRF) binding assay.

Structures are written as SMILES. Where a SMILES comes first, the peptide text is derived from it. Bridges are numbered along the chain shown (N, C = ends). [ ]: non-standard residue; d: D form. The star is where a group is joined. Trp(1-CH2COOH) = N[C@@H](Cc1cn(CC(=O)O)c2ccccc12)C(=O)O; Hyp = O=C(O)[C@@H]1C[C@@H](O)CN1; NMeNle = CCCC[C@H](NC)C(=O)O; X18 = c1ccc(-c2ccnc(*)n2)cc1; NMeA = CN[C@@H](C)C(=O)O; Dab = NCC[C@H](N)C(=O)O; Dap = NC[C@H](N)C(=O)O; X11 = COc1ccnc(*)n1; X3 = N#Cc1ccc(*)nc1; X15 = c1cnc(*)cn1

T1 sequence (Q9NZQ7 18-239): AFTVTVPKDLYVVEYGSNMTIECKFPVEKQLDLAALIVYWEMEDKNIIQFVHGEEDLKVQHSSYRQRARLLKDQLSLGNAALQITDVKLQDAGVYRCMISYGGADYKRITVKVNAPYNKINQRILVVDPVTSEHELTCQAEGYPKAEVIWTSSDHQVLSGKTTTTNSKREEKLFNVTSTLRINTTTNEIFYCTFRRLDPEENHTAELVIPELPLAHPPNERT

By IC50 is commonly meant the midpoint of a concentration-inhibition curve. A high value points to weaker potency. As to `CCCC[C@H]1C(=O)N(C)[C@@H](CCCC)C(=O)N[C@@H](CC(C)C)C(=O)N[C@H](C(=O)NCC(N)=O)CSCC(=O)N[C@@H](Cc2ccc(O)cc2)C(=O)N(C)[C@@H](C)C(=O)N[C@@H](CC(N)=O)C(=O)N2CCC[C@H]2C(=O)N[C@@H](CNc2nccc(OC)n2)C(=O)N[C@@H](CC(C)C)C(=O)N2C[C@H](O)C[C@H]2C(=O)N[C@@H](Cc2c[nH]c3ccccc23)C(=O)N[C@@H](CCN)C(=O)N[C@@H](Cc2cn(CC(=O)O)c3ccccc23)C(=O)N1C` [Compound 1001] ({CH2CO}-Y[NMeA]NP[Dap](X11)L[Hyp]W[Dab][Trp(1-CH2COOH)][NMeNle][NMeNle]LCG-NH2; thioether N-14), the IC50 worked out at 5.4 nM. The result for `CCCC[C@H]1C(=O)N(C)[C@@H](CCCC)C(=O)N[C@@H](CC(C)C)C(=O)N[C@H](C(=O)NCC(N)=O)CSCC(=O)N[C@@H](Cc2ccc(O)cc2)C(=O)N(C)[C@@H](C)C(=O)N[C@@H](CC(N)=O)C(=O)N2CCC[C@H]2C(=O)N[C@@H](CNc2ccc(C#N)cn2)C(=O)N[C@@H](CC(C)C)C(=O)N2C[C@H](O)C[C@H]2C(=O)N[C@@H](Cc2c[nH]c3ccccc23)C(=O)N[C@@H](CCNc2ccc(C#N)cn2)C(=O)N[C@@H](Cc2cn(CC(=O)O)c3ccccc23)C(=O)N1C` [Compound 1002] ({CH2CO}-Y[NMeA]NP[Dap](X3)L[Hyp]W[Dab](X3)[Trp(1-CH2COOH)][NMeNle][NMeNle]LCG-NH2; thioether N-14) reads 4.5 nM; that for `CCCC[C@H]1C(=O)N(C)[C@@H](CCCC)C(=O)N[C@@H](CC(C)C)C(=O)N[C@H](C(=O)NCC(N)=O)CSCC(=O)N[C@@H](Cc2ccc(O)cc2)C(=O)N(C)[C@@H](C)C(=O)N[C@@H](CC(N)=O)C(=O)N2CCC[C@H]2C(=O)N[C@@H](CNc2nccc(-c3ccccc3)n2)C(=O)N[C@@H](CC(C)C)C(=O)N2C[C@H](O)C[C@H]2C(=O)N[C@@H](Cc2c[nH]c3ccccc23)C(=O)N[C@@H](CCNc2nccc(-c3ccccc3)n2)C(=O)N[C@@H](Cc2cn(CC(=O)O)c3ccccc23)C(=O)N1C` [Compound 1003] ({CH2CO}-Y[NMeA]NP[Dap](X18)L[Hyp]W[Dab](X18)[Trp(1-CH2COOH)][NMeNle][NMeNle]LCG-NH2; thioether N-14), 8.3 nM.

In turn, `CCCC[C@H]1C(=O)N(C)[C@@H](CCCC)C(=O)N[C@@H](CC(C)C)C(=O)N[C@H](C(=O)NCC(N)=O)CSCC(=O)N[C@@H](Cc2ccc(O)cc2)C(=O)N(C)[C@@H](C)C(=O)N[C@@H](CC(N)=O)C(=O)N2CCC[C@H]2C(=O)N[C@@H](CNc2cnccn2)C(=O)N[C@@H](CC(C)C)C(=O)N2C[C@H](O)C[C@H]2C(=O)N[C@@H](Cc2c[nH]c3ccccc23)C(=O)N[C@@H](CCNc2cnccn2)C(=O)N[C@@H](Cc2cn(CC(=O)O)c3ccccc23)C(=O)N1C` [Compound 1004] ({CH2CO}-Y[NMeA]NP[Dap](X15)L[Hyp]W[Dab](X15)[Trp(1-CH2COOH)][NMeNle][NMeNle]LCG-NH2; thioether N-14) yielded an IC50 of 5.1 nM.

`CCCC[C@H]1C(=O)N(C)[C@@H](CCCC)C(=O)N[C@@H](CC(C)C)C(=O)N[C@H](C(=O)NCC(N)=O)CSCC(=O)N[C@@H](Cc2ccc(O)cc2)C(=O)N(C)[C@@H](C)C(=O)N[C@@H](CC(N)=O)C(=O)N2CCC[C@H]2C(=O)N[C@@H](CNc2cnccn2)C(=O)N[C@@H](CC(C)C)C(=O)N2C[C@H](O)C[C@H]2C(=O)N[C@@H](Cc2c[nH]c3ccccc23)C(=O)N[C@@H](CCN)C(=O)N[C@@H](Cc2cn(CC(=O)O)c3ccccc23)C(=O)N1C` [Compound 1005] ({CH2CO}-Y[NMeA]NP[Dap](X15)L[Hyp]W[Dab][Trp(1-CH2COOH)][NMeNle][NMeNle]LCG-NH2; thioether N-14) returned an IC50 of 11 nM.
